Reference: patent publication US11098040B2, “Compounds and methods of use” (Ferro Therapeutics, Inc., priority 2018, dated 2021)

Experiments:
[1] = mouse, ip, 15 mg/kg
Method: Test compounds were dissolved either in 20% (w/w) sulfobutylether-β-cyclodextrin (SBECD) pH 3-7 aqueous solution, or 5% DMSO/(30-50%) PEG400/(65-45%) water. Test compound dosing solutions were administered intraperitoneally to Balb/c nude male mice. Blood samples were collected at various time points with EDTA-K2 as anti-coagulant on ice, and centrifuged to obtain plasma samples. The plasma samples were stored at −20° C. until analysis.
Into 10 μL of test compound plasma samples were added 2 μL DMSO then 200 μL of 5 ng/mL internal standard (VTSD) (Terfenadine) in MeOH/acetonitrile. The mixture was vortexed for 1 minute and centrifuged at 4000 rpm for 15 minutes. Calibration standards were prepared by spiking known amount of test compounds into blank plasma samples. The supernatant solution was diluted 5 times with Acetonitrile/H2O (with 0.1% formic acid, 1:1, v/v), and this is the solution for LC-MS/MS analysis. The limit of quantification (LOQ) was 1 ng/mL.
Typical HPLC mobile phases were mobile phase of 5 mM NH4OAc (with 0.05% formic acid); and mobile phase B of acetonitrile (with 0.1% formic acid). The HPLC column was Kinetex C18 (30 mm×3.00 mm). Mass spectrometer was tuned for each compound in the Multiple Reaction Monitoring (MRM) scanning mode and in the electrospray ionization mode. The lower limit of quantification was 1-10 ng.
In this study, K601 (RSL3) was formulated in 5% DMSO/30% PEG 400/65% water at 1.5 mg/mL. The volume of injection via intraperitoneal route was 10 mL/kg for a dose of 15 mg/kg. […] The limit of quantification (LOQ) was 1 ng/mL.
In this study, the compound was formulated in 20% (w/w) sulfobutylether-β-cyclodextrin (SBECD), pH 5 aqueous solution at 1.5 mg/mL. The volume of injection via intraperitoneal route was 10 mL/kg for a dose of 15 mg/kg. The concentration of test compounds in plasma were analyzed by LC-MS with the method described above. The limit of quantification was 1 ng/mL.
It was formulated in 5% DMSO/50% PEG400/45% Water pH adjusted to 4 with HCl as an aqueous solution at 1.0 mg/mL. The volume of injection via intraperitoneal route was 15 mL/kg for a dose of 15 mg/kg. The concentration of test compounds in plasma were analyzed by LC-MS with the method described above. The limit of quantification was 1 ng/mL. […] The limit of quantification was 1 ng/mL.
Compounds 24 and 28 were formulated in 20% (w/w) sulfobutylether-β-cyclodextrin (SBECD) with pH 3 and pH 4, respectively, as an aqueous solution at 1.0 mg/mL. Compound 67 was in 5% DMSO/50% PEG 400/45% water pH 4 (adjusted with 12 N HCl) aqueous solution at 1.0 mg/mL. The injection volume via intraperitoneal route was 10 mL/kg for a dose of 15 mg/kg. The concentration of test compounds in plasma were analyzed by LC-MS with the method described above. The limit of quantification was 1 ng/mL.

H1299 = test: Cell viability assay (CellTiter Glo), lung cancer cell line H1299; type: cell-based; conditions: Homo sapiens, NCI-H1299, 96 hours
Method: (§1) Cell viability assay was performed to assess the potency of the compounds in human cancer cell lines KP4 (pancreatic ductal adenocarcinoma), MiaPaCa-2 (pancreatic carcinoma), AsPC-1 (pancreatic adenocarcinoma, ascites), 143B (osteosarcoma), and SJSA-1 (osteosarcoma). Selected compounds were also assayed in a human breast epithelial cell line MCF-10A, a nontumorigenic cell line as a control to assess differential activity. Cells at a density of 500-5,000 cells/well were seeded in 96-well plates and incubated at 37° C. overnight. A series of 9 different concentrations of compound stocks (500×) were created by 3-fold serial dilution in DMSO. These compounds were further diluted in culture media and then added to cells so that the final DMSO concentration was equal to 0.25% or less. After 96 hours of incubation, 50 μL of CellTiter Glo reagent (Promega) was added to each well and luminescence was measured after 10 minutes using EnVision (PerkinElmer). Compounds titrated from top concentration of up to 30 μM. The select compounds were tested initially from 30 μM as the top concentration in duplicates (range of 4.6 nM-30 μM). […] Luminescence from cells treated with DMSO alone was set as Max and % of inhibition was calculated as follows: Inhibition %=(Max-Sample value)/Max*100. Data was analyzed using XL-fit software (ID Business Solutions Ltd.). IC50, relative IC50, or % of top inhibition was calculated.
(§2) A group of selected analogs were further profiled in cell viability assays described above in multiple additional cancer cell lines, including lung cancer, melanoma, hepatocarcinoma, pancreatic cancer, leukemia, lymphoma, ovarian cancer, breast cancer, colon cancer, and sarcoma cell lines. Initial cell seeding numbers were adjusted for each cell line. Typically, 500-5000 cells/well for adherent cells and 5000-10000/well for suspension cells were seeded in 96-well plates.

H2228 = test: Cell viability assay (CellTiter Glo), lung cancer cell line H2228; type: cell-based; conditions: Homo sapiens, NCI-H2228; lung cancer cell line, 96 hours, CellTiter Glo; read-out: IC50 H2228
Method: as §1, §2

MDA-MB-435S = test: Cell viability assay (CellTiter Glo), melanoma cell line MDA-MB-435S; type: cell-based; conditions: Homo sapiens, 96 hours
Method: as §1, §2

Huh7 = test: Cell viability assay (CellTiter Glo), hepatocellular carcinoma Huh7; type: cell-based; conditions: Homo sapiens, Huh-7, 96 hours
Method: as §1, §2

PANC1 = test: Cell viability assay (CellTiter Glo), pancreatic cell line PANC1; type: cell-based; conditions: Homo sapiens, PANC-1, 96 hours
Method: as §1, §2
The results of the assay in the pancreatic cell lines are given in Table 15a for PANC1, Table 15b for MiaPaCa-2, and Table 15c for AsPC-1.

MV-4-1 = test: Cell viability assay (CellTiter Glo), leukemia cell line MV-4-1; type: cell-based; conditions: 96 hours
Method: as §1, §2
The results of the assay in the leukemia cell lines are given in Table 16a for MV-4-1 and Table 16b for HL-60 and Kasumi-1.

REC-1 = test: Cell viability assay (CellTiter Glo), lymphoma cell line REC-1; type: cell-based; conditions: Homo sapiens, Rec1, 96 hours
Method: as §1, §2

Raji = test: Cell viability assay (CellTiter Glo), lymphoma cell line Raji; type: cell-based; conditions: Homo sapiens, 96 hours
Method: as §1, §2

SK-OV-3 = test: Cell viability assay (CellTiter Glo), ovarian cancer cell line SK-OV-3; type: cell-based; conditions: Homo sapiens, 96 hours
Method: as §1, §2

HCC1954 = test: Cell viability assay (CellTiter Glo), breast cancer cell line HCC1954; type: cell-based; conditions: Homo sapiens, 96 hours
Method: as §1, §2

HT29 = test: Cell viability assay (CellTiter Glo), colon cancer cell line HT29; type: cell-based; conditions: Homo sapiens, HT-29, 96 hours
Method: as §1, §2

HT-1080 luc2 = test: Cell viability assay (CellTiter Glo), fibrosarcoma HT-1080 luc2; type: cell-based; conditions: Homo sapiens, fibrosarcoma expressing a luciferase gene, 96 hours, CellTiter Glo, read-out: IC50 HT-1080 luc2
Method: as §1, §2
The results of the assay in sarcoma cell lines are given in Table 21a for HT-1080 luc2 (fibrosarcoma expressing a luciferase gene), Table 21b for 143B (osteosarcoma), and Table 21c for SJSA-1 (osteosarcoma).

MCF-10A = test: Cell viability assay (CellTiter Glo), non-tumorigenic breast epithelial cell line MCF-10A; type: cell-based; conditions: Homo sapiens, 96 hours
Outline: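 MCF-10A cells (500-5,000/well) treated 96 h at 37° C with 9-point 3-fold dilutions from up to 30 μM, ≤0.25% DMSO, in duplicate. Viability by CellTiter Glo luminescence; % inhibition versus DMSO-only wells gave IC50, relative IC50 or % top inhibition. Paclitaxel positive control.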

Compound	detection in vivo of hydrolyzed products of K601 (RSL3) [1]	IC50 (H1299) [µM]	IC50 (H2228) [µM]	IC50 (MDA-MB-435S) [µM]	IC50 (Huh7) [µM]	IC50 (PANC1) [µM]	IC50 (MV-4-1) [µM]	IC50 (REC-1) [µM]	IC50 (Raji) [µM]	IC50 (SK-OV-3) [µM]	IC50 (HCC1954) [µM]	IC50 (HT29) [µM]	IC50 (HT-1080 luc2) [µM]	IC50 (MCF-10A) [µM]
COC(=O)[C@H]1Cc2c([nH]c3ccccc23)[C@H](c2ccc(C(=O)O)cc2)N1C(=O)CCl [Example 4]	detected	–	–	–	–	–	–	–	–	–	–	–	–	–
C[C@H]1Cc2c([nH]c3ccccc23)[C@H](c2ccc(C3CCCCC3)cc2)N1C(=O)CCl [Example 110]	–	0.03	0.051	0.014	0.035	0.072	0.164	0.096	0.033	0.053	0.101	0.112	0.017	–
CC[C@H]1Cc2c([nH]c3ccccc23)[C@H](c2ccc(C(=O)OC)cc2)N1C(=O)CCl [Example 98]	–	0.006	0.017	0.007	0.027	0.043	0.065	0.061	0.02	0.03	0.063	0.094	0.009	0.92
COC(=O)c1ccc([C@@H]2c3[nH]c4ccc(Cl)cc4c3C[C@H](C(=O)OC)N2C(=O)CCl)cc1 [Example 94]	–	0.005	0.019	0.009	0.026	0.047	0.083	0.029	0.009	0.018	0.068	0.11	0.008	0.46
C[C@H]1Cc2c([nH]c3ccccc23)[C@H](c2ccc(C(=O)N[C@]34CC5C[C@H](C[C@H](C5)C3)C4)cc2)N1C(=O)CCl [Example 102]	–	0.003	0.009	0.004	0.011	0.03	0.023	0.031	0.01	0.013	0.038	0.048	0.004	0.22
C[C@H]1Cc2c([nH]c3ccccc23)[C@H](c2ccc(S(=O)(=O)N[C@]34CC5C[C@H](C[C@H](C5)C3)C4)cc2)N1C(=O)CCl [Example 101]	–	0.038	0.163	0.036	0.072	0.169	0.174	0.191	0.075	0.114	0.613	0.403	0.039	1.07
COC(=O)c1ccc([C@H]2c3[nH]c4ccccc4c3C[C@H](C(=O)O)N2C(=O)CCl)cc1 [Example 3]	detected	–	–	–	–	–	–	–	–	–	–	–	–	–
O=C(O)c1ccc([C@H]2c3[nH]c4ccccc4c3C[C@H](C(=O)O)N2C(=O)CCl)cc1 [Example 5]	detected	–	–	–	–	–	–	–	–	–	–	–	–	–
COC(=O)c1ccc([C@H]2c3[nH]c4ccc(OC)cc4c3C[C@H](C)N2C(=O)CCl)cc1 [Example 113]	–	0.079	0.145	0.048	0.157	0.214	0.532	0.222	0.081	0.146	0.2	0.494	0.069	–
C[C@H]1Cc2c([nH]c3ccccc23)[C@H](c2ccc([Si](C)(C)C)cc2)N1C(=O)CCl [Example 106]	–	0.007	0.055	0.017	0.028	0.055	0.17	0.156	0.031	0.087	0.12	0.189	0.011	–
C[C@H]1Cc2c([nH]c3ccccc23)[C@H](c2ccc(C3CCCC3)cc2)N1C(=O)CCl [Example 109]	–	0.032	0.057	0.017	0.043	0.069	0.168	0.106	0.038	0.063	0.108	0.174	0.019	1.14
C[C@H]1Cc2c([nH]c3ccccc23)[C@H](c2ccc(N3CCOCC3)cc2)N1C(=O)CCl [Example 103]	–	0.021	0.034	0.038	0.084	0.161	0.23	0.186	0.074	0.113	0.137	0.448	0.028	1.37
C[C@H]1Cc2c([nH]c3ccccc23)[C@H](c2ccc(C3CCOCC3)cc2)N1C(=O)CCl [Example 112]	–	0.038	0.066	0.03	0.081	0.081	0.27	0.14	0.046	0.102	0.101	0.198	0.024	–
